Test results published in patent US6933318B1, “Topical organic ectoparasiticidal formulations” (Eli Lilly and Company, priority 1999, dated 2005).
“Also recorded” adds a separate entry of the source.

Experiment: Wetting test of solvent systems on tanned rabbit pelt
Type: physicochemical
Conditions: about 1 mL solvent without active ingredient, dropwise, pelt at about 45°
Experimental: To determine organic solvents that are useful spreading agents, solvent systems that are capable of solubilizing at least 1% spinosad by weight percent were screened for hair wetting by applying about 1 mL of the solvent system (solvents were screened without active ingredient), dropwise, to a tanned rabbit pelt that was at an angle of about 45°. […]

Row | SMILES | Ability to wet rabbit hair
1 | CCCCCCO [hexanol] | Wet Well
2 | CCCCCCCC/C=C\CCCCCCCC(=O)OC [methyl oleate] | Wet Well
3 | CC(O)CO (stereo not shown) [propylene glycol] | Did Not Wet
4 | CN1CCCC1=O [N-methyl pyrrolidone] | Did Not Wet
5 | CCCCCCCCCCCCCC(=O)OC(C)C [isopropyl myristate] | Wet Well
6 | CCCCOC(=O)C(C)O (stereo not shown) [butyl lactate] | Wet Well
7 | COC(C)COC(C)CO (stereo not shown) [dipropylene glycol methyl ether] | wet the hair very well; also recorded: Wet Well
8 | CCCCCCCCCCCC(=O)OC [methyl laurate] | Wet Well
9 | CCCCCCCC(=O)O [octanoic acid] | Wet Well
10 | C=C(C)[C@H]1CC=C(C)CC1 [limonene] | Wet Well
11 | CCCCCCCCCC(=O)OC [methyl caprate] | Wet Well
12 | CCCCCCCC/C=C\CCCCCCCC(=O)OCC [ethyl oleate] | Wet Well
13 | CC(=O)OCC(COC(C)=O)OC(C)=O [triacetin] | Did Not Wet
